In PubChem BioAssay AID651759 (The Scripps Research Institute Molecular Screening Center, 2012):
Several values for one entry are separate records, joined by “and”; a condition that tells them apart may be missing. Equal values may be shown once. Activity calls are given as the source filed them. How the calls were made is not given here.

What follows are compounds tested against Perilipin-5 (Homo sapiens) + 1-acylglycerol-3-phosphate O-acyltransferase ABHD5 (Homo sapiens) (UniProt Q00G26+Q8WTS1) (assay: ABHD5-PLIN5 interaction inhibitors, late-stage follow-up, cell lysate, luminescence, proteins expressed in HEK293T (AID 651759)).
Chain of Perilipin-5 (Homo sapiens) + 1-acylglycerol-3-phosphate O-acyltransferase ABHD5 (Homo sapiens) (Q00G26 whole entry, looked up): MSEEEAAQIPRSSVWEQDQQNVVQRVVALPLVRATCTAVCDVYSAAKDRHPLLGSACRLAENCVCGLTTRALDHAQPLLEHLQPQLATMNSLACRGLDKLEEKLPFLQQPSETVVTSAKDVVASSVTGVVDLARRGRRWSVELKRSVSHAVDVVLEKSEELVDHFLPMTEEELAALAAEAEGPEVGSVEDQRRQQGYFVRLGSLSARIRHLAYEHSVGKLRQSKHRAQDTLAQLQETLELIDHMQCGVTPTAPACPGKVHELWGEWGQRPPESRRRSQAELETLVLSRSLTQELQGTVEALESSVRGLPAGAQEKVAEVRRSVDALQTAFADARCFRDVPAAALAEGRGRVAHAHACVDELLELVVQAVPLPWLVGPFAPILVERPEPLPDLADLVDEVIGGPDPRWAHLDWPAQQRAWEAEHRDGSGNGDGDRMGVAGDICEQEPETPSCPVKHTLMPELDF
Chain of Perilipin-5 (Homo sapiens) + 1-acylglycerol-3-phosphate O-acyltransferase ABHD5 (Homo sapiens) (Q8WTS1 whole entry, looked up): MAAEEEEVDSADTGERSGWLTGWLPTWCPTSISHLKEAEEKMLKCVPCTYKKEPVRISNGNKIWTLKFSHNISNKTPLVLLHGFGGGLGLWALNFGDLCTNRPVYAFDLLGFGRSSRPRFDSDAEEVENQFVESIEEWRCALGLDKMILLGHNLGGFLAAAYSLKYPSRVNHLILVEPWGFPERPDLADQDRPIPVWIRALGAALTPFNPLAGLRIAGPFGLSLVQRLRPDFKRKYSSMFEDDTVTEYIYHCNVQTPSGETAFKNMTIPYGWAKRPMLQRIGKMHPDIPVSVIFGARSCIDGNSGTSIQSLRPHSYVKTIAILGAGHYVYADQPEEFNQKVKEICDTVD

Which IC50 does the source give for `CC(CCc1ccco1)NC(=O)CCc1nnc2ccc(NCc3ccccc3Cl)nn12` (stereo unspecified) here?
Its IC50 is 2.89 µM.

`CCN(CC)CCN(CC(=O)Nc1c(C)cc(C)cc1C)C(=O)c1ccccc1` was tested. Which IC50 did it give?
Its IC50 is 2.85 µM.

`COCCN(CCOC)c1nc(N)c2c(N)nc3c(c2c1C#N)CC(=O)N3Cc1ccc(Cl)cc1` was tested. Which IC50 did it give?
The IC50 was > 39.8 µM (inactive).

For `COc1ccc(NC(=S)N(CCCN2CCCC2)Cc2cccn2Cc2ccc(Cl)cc2)cc1Cl`, which IC50 is on record?
Its IC50 is “inactive”.

How did the IC50 turn out when `CCN(CC)CCOc1ccc(/C(=C(/Cl)c2ccccc2)c2ccccc2)cc1` was run?
The IC50 was 1.32 µM.

How did the IC50 turn out when `CCOC(=O)c1c(NC(C)=O)sc2c1CCC(C=O)=C2Sc1ccccc1` was run?
The IC50 was 2.25 µM.

`CCCCOC(=O)Nc1cc(C(=O)OC)ccc1C(=O)OC` was tested. Which IC50 did it give?
The IC50 was 3.7 µM.

With `Cc1nc2c(o1)CCc1ccccc1C2N1CCN(C)CC1` (stereo unspecified) as the compound, how does the IC50 read?
The IC50 was 2.25 µM.

For `CN(C)CCCN(C(=O)CCc1ccccc1)c1nc2ccc(Cl)cc2s1`, which IC50 is on record?
Its IC50 is “inactive”.

Which IC50 does the source give for `CC1=CC(C)(C)Nc2ccc(OC(=O)C(C)N3C(=O)c4ccccc4C3=O)cc21` (stereo unspecified) here?
Its IC50 is 4.25 µM.

How did the IC50 turn out when `CC1CCN(S(=O)(=O)c2ccc(NC(=O)Cc3ccccc3)cc2)CC1` was run?
Its IC50 is 7.89 µM.

How did the IC50 turn out when `CN(C)CCCN(C(=O)CCc1ccccc1)c1nc2ccc(Br)cc2s1` was run?
Its IC50 is “inactive”.

How did the IC50 turn out when `CC(=O)Nc1ccc(S(=O)(=O)N2c3ccc(F)cc3CCC2C)cc1` (stereo unspecified) was run?
The IC50 was “inactive”.

`CC1CCN(S(=O)(=O)c2ccc(NC(=O)Cc3cccs3)cc2)CC1` was tested. Which IC50 did it give?
Its IC50 is 9 µM.

For `CCOC(=O)c1c(NC(=O)/C=C/C(=O)O)sc(C)c1-c1ccc(C(C)(C)C)cc1`, which IC50 is on record?
Its IC50 is 4.5 µM.

With `CC(=O)Cc1cc(O)c2ccccc2c1OC(=O)c1ccccc1` as the compound, how does the IC50 read?
The IC50 was 3.56 µM.

Which IC50 does the source give for `Cc1cc(C)c2nc(NNC(=O)c3ccc(S(=O)(=O)N4CCCC(C)C4)cc3)sc2c1` (stereo unspecified) here?
The IC50 was 3.89 µM.

Which IC50 does the source give for `Cc1cc(C)c(NC(=O)CN2CCN3CCCC3C2)c(C)c1` (stereo unspecified) here?
The IC50 was 7.06 µM.

How did the IC50 turn out when `COc1ccc(C)c2sc(N(CCN(C)C)C(=O)/C=C/c3cccs3)nc12` was run?
Its IC50 is “inactive”.

How did the IC50 turn out when `COc1ccccc1-c1cc(C(=O)NC2CCN(C)CC2)c2ccc(Cl)c(C)c2n1` was run?
Its IC50 is > 13.3 µM (inactive).

With `FC(F)(F)c1cccc(NC(=S)N(CCCN2CCCC2)Cc2cccn2Cc2ccc(Cl)cc2)c1` as the compound, how does the IC50 read?
The IC50 was “inactive”.

How did the IC50 turn out when `O=c1[nH]c(C2CCN(S(=O)(=O)c3ccc(S(=O)(=O)NC4CC4)cc3)CC2)nc2c1nnn2Cc1ccc(F)cc1` was run?
The IC50 was 1.33 µM.

With `CCOc1cc(N)c(Cl)cc1C(=O)NCC1CN(Cc2ccc(F)cc2)CCO1` (stereo unspecified) as the compound, how does the IC50 read?
Its IC50 is 1.29 µM.

With `CN1CCC(=C2c3ccccc3CC(=O)c3sccc32)CC1` as the compound, how does the IC50 read?
The IC50 was > 39.8 µM (inactive).

`CCCCNC(=O)Nc1ccc2c(c1)N(C)C(=O)c1ccccc1S2` was tested. Which IC50 did it give?
The IC50 was 3.12 µM.

How did the IC50 turn out when `Cc1cc(C)c(NC(=O)C[N+](C)(C)CC(O)COc2cccc3ccccc23)c(C)c1` (stereo unspecified) was run?
Its IC50 is 9.14 µM.

With `COc1cc(OC)cc(C(=O)NC(=S)N(Cc2ccccc2)C(C)C)c1` as the compound, how does the IC50 read?
The IC50 was 2.15 µM.

Which IC50 does the source give for `Cc1ccc2nc3cc([N+](=O)[O-])cc([N+](=O)[O-])c3cc2c1` here?
Its IC50 is 1.44 µM.

With `CC1Sc2ccc(S(=O)(=O)N3CCC(C(=O)NCc4ccc(Cl)cc4)CC3)cc2NC1=O` (stereo unspecified) as the compound, how does the IC50 read?
Its IC50 is 8.86 µM.

How did the IC50 turn out when `CC(C)c1ccc(N2C=Nc3ccc(C(C)C)cc3C2)cc1` was run?
Its IC50 is 1 µM.

For `CCN(CC)CCC(C)OC(c1ccccc1)c1ccccc1` (stereo unspecified), which IC50 is on record?
Its IC50 is 1.38 µM.

Which IC50 does the source give for `C=C[C@]1(C)C[C@@H](OC(=O)CSCCN(CC)CC)[C@]2(C)C(C)CC[C@]3(CCC(=O)[C@H]32)[C@@H](C)[C@@H]1O` (stereo partly specified) here?
Its IC50 is 4.45 µM.

`CC(=O)Oc1ccc(C23c4ccccc4C2(OC(C)=O)c2cc(OC(C)=O)ccc23)cc1` (stereo unspecified) was tested. Which IC50 did it give?
Its IC50 is > 39.8 µM (inactive).

How did the IC50 turn out when `CN(C)CCN(Cc1ccco1)c1ccccn1` was run?
The IC50 was > 39.8 µM (inactive).

`O=C(/C(=C/O)N=Nc1ccc(Cl)cc1)c1ccncc1` was tested. Which IC50 did it give?
Its IC50 is 6.19 µM.

Which IC50 does the source give for `CCN(CC)CCNC(=O)c1ccc(NC(=O)c2cn(-c3ccccc3)nc2-c2cccs2)cc1` here?
The IC50 was “inactive”.

Which IC50 does the source give for `CCN(CC)CCOCCOC(=O)C1(c2ccccc2)CCCC1` here?
The IC50 was 1.26 µM.

Which IC50 does the source give for `COc1cc2c(cc1OC)C(C)N(CCc1ccc(Cl)cc1)CC2` (stereo unspecified) here?
The IC50 was 9.34 µM.

For `O=C(C[n+]1cccc(CNC(=O)c2ccc(OC(F)F)cc2)c1)Nc1cccc(C(F)(F)F)c1`, which IC50 is on record?
The IC50 was > 39.8 µM (inactive).

Which IC50 does the source give for `CC(=O)Cc1cc(O)c2ccccc2c1OC(=O)c1ccc(Br)cc1` here?
Its IC50 is 4.75 µM.

Which IC50 does the source give for `CCCNC(=O)Nc1ccc2c(c1)N(C)C(=O)c1ccccc1S2` here?
The IC50 was 5.58 µM.

`O=c1[nH]c(C2CCN(S(=O)(=O)c3ccc(F)cc3)CC2)nc2c1nnn2Cc1ccc2c(c1)OCCO2` was tested. Which IC50 did it give?
Its IC50 is “inactive”.

`NC(=NCCCCCCN=C(N)/N=C(\N)Nc1ccc(Cl)cc1)/N=C(\N)Nc1ccc(Cl)cc1` was tested. Which IC50 did it give?
The IC50 was 6.22 µM and 6.86 µM.

`CN(C)CCOC1(Cc2ccc(F)cc2)CCC(C(C)(C)C)CC1` (stereo unspecified) was tested. Which IC50 did it give?
The IC50 was > 39.8 µM (inactive).

For `Cc1ccc2c(CC(=O)N3CCN(S(=O)(=O)c4ccc5c(c4)OCCO5)CC3)coc2c1`, which IC50 is on record?
Its IC50 is 2.97 µM and 5.73 µM.

For `COc1cc(C)c2sc3ccccc3c(=O)c2c1NCCN(C)C`, which IC50 is on record?
The IC50 was > 39.8 µM (inactive).
